Assays:
MEF cells = assay: Frontotemporal dementia cellular model (progranulin knockdown in MEF cells); assay type: cell-based; details: PGRN siRNA mix, 1 μM or 5 μM, 48 hours (FIG. 13)
Experimental: MEF cells were maintained at 37° C. and 5% CO2 in DMEM supplemented with 10% fetal bovine serum (FBS), 2 mM L-glutamine, 100 U/ml penicillin, and 100 μg/ml streptomycin. After reaching 80% of confluence, cells were detached and seeded on 6-well plates in complete media at a density of 3×10^5 cells/well and allowed to recover for 48 h. To perform a knockdown expression of the progranulin protein, cells were then washed three times with PBS and treated with small interference RNA (siRNA) mix, that target progranulin (PGRN) gene (Qiagen FlexiTube siRNA mix, Cat No 1027416), according to manufacturer instructions.
Transfection media with siRNA mix was supplemented with OPTIMEM medium alone (GRN7) or 1 μM or 5 μM compound 58 in OPTIMEM medium. Transfection media without siRNA mix (Veh) and cells cultured in OPTIMEM medium alone (Unt) were used as controls.
After 48 hours treatment, culture media were removed and cells were lysed with SDS-PAGE lysis buffer. Lysates were transferred to 1.5 ml tubes and sonicated for 3 min. Total protein amount was quantified using BCA Protein Assay Kit (Pierce). Equal amount of proteins (30 μg) was loaded on SDS-PAGE gels. […]
PGRN (R&D Systems) and β-actin (Sigma-Aldrich) antibodies were used as primary antibodies. […] Quantification of protein bands was done by densitometry using ImageJ software. […]

[1] = system: Balb/c mice with denervated hind limb, tibialis anterior; assay: Denervation-induced muscle atrophy; assay type: in vivo, mouse
Experimental: Wild type eight-weeks-old male Balb/c mice obtained from the vivarium Fundación Ciencia & Vida Chile (Santiago, Chile) were used. Mice were housed in independent plastic cages in a room maintained at 25° C. with a 12-h:12-h light:dark cycle.
After a deeply anesthetized (isoflurane inhaled in medical oxygen), mice were denervated by surgical removal of ˜2 mm of sciatic nerve from one hindlimb. The incisions were closed using sutures. All procedures were performed under sterile conditions and the mice were daily monitored.
After seven days of denervation, animals receive oral administration every day via feeding tubes (15 gauge) of vehicle (50% Polyethylene glycol 400 (Sigma-Aldrich P3265) in distilled water) or 10 mg/kg of compound 58 formulated in vehicle solution.
After 14 days of denervation, animals were sacrificed and tibialis anterior were removed from both hindlimbs. Muscles derived from non-denervated hind limb were used as control.
Upon collection, muscles were immediately frozen in liquid nitrogen and stored at −80° C. The frozen muscles were then homogenized with a T 10 basic ULTRA-TURRAX (IKa) in ice-cold buffer lysis (Cell Signaling 9803) and protease and phosphatase inhibitors (Roche). Lysates were sonicated for 3 min and centrifuged at 13,000 rpm for 20 minutes at 4° C. Protein concentration in supernatants was determined using BCA Protein Assay Kit (Pierce). Equal amount of protein was loaded on SDS-PAGE gels. […]
ATF4 (Abcam), Atrogin-1 (ECM Biosciences), MuRF-1 (Santa Cruz Biotechnology) and R-actin (Sigma-Aldrich) antibodies were used as primary antibodies. […] Quantification of protein bands was done by densitometry using ImageJ software.
Expression of ATF4 and the muscle atrophy markers, Atrogin-1 and MuRF-1, of tibialis anterior derived from control and denervated hind limbs of mice treated with vehicle or compound 58 are shown in FIG. 11A. […] The levels were normalized to pi-actin expression and percentage was calculated as the percent relative to the expression of non-denervated hind limbs from control mice (Vehicle) which corresponds to 100%. […]

## O=C(NN1CCN(C[C@@H](O)COc2ccc(Cl)c(F)c2)CC1)c1ccc2cc(Cl)ccc2n1 [Compound 58, (R)-6-chloro-N-(4-(3-(4-chloro-3-fluorophenoxy)-2-hydroxypropyl)piperazin-1-yl)quinoline-2-carboxamide]
MEF cells
  expression of PGRN (progranulin) in siRNA knockdown condition: increased expression of progranulin
[1]; 10 mg/kg oral every day from day 7 to 14, vs vehicle (FIG. 11B)
  ATF4 expression in tibialis anterior: reduction
[1]; 10 mg/kg oral every day from day 7 to 14, vs vehicle (FIG. 11C)
  Atrogin-1 expression in tibialis anterior: reduction
[1]; 10 mg/kg oral every day from day 7 to 14, vs vehicle (FIG. 11D)
  MuRF-1 expression in tibialis anterior: reduction

From patent US11166942B2 (PRAXIS BIOTECH LLC, priority 2018, dated 2021)
